From patent KR20070037041A, “누에 수번데기로부터 아데노신 유도체 화합물을 정제하는방법 및 아데노신 유도체 화합물을 포함하는 발기부전치료용 조성물” (대한민국(관리부서:농촌진흥청장), priority 2005, dated 2007)

What was measured:
[1] = cited from earlier work
[2] = tested on: phosphodiesterase (PDE) [포스포디에스터라제]; test: PDE inhibition in combination with existing PDE inhibitors; format: biochemical; conditions: existing PDE inhibitor combined with DX fraction (20, 10, 4 μg); in words
[3] = tested on: bovine endothelial cells (CPAE) [소내피세포(CPAE)]; format: cell-based; conditions: 24 h
[4] = tested on: bovine vascular endothelial cells (CPAE cell line) [소혈관 내피세포(CPAE cell line)]; test: NO production in CPAE endothelial cells (total nitrate/nitrite, Nims method); format: cell-based
[5] = tested on: phosphodiesterase I from snake venom (Crotalus atrox), PDE type IV [포스포디에스테라제 I은 뱀독 (Crotalus atrox) 유래 PDE 타입 IV]; test: Phosphodiesterase inhibition ([3H] cAMP SPA); format: biochemical

Q: For `CCCc1nc(C)c2c(=O)[nH]c(-c3cc(S(=O)(=O)N4CCN(CC)CC4)ccc3OCC)nn12` [레비트라], which duration of erection ([1]; background) is on record?
A: The duration of erection was at most 36 h.

Q: Which “PDE inhibition on combined administration” value [2] does the source give for `COc1cc2c(cc1OC)-c1c/c(=N\c3c(C)cc(C)cc3C)n(C)c(=O)n1CC2` [Trequinsin, 하이드로클로라이드] here?
A: The value was “상승작용”.

Q: Which erection induction ([1]; compared with Viagra, Trigo-Rocha 1993, Taher 1994) does the source give for `CCCOc1ccccc1-c1nc2nn[nH]c2c(=O)[nH]1` [자프리나스트(zaprinast)] here?
A: Its erection induction is “비아그라보다 다소 낮은 정도로 발기를 유도”.

Q: With `CN1CC(=O)N2[C@H](c3ccc4c(c3)OCO4)c3[nH]c4ccccc4c3C[C@@H]2C1=O` [시알리스] as the compound, how does the “duration of drug effect” value ([1]; background) read?
A: Its value is at most 36 h.

Q: With “5-{6-(디메틸아미노)-9H-푸린-9-일}-테트라히드로-4'-푸란-3'-올-5'-o-테트라파이로(tetrafyro)-2H-피란-3'',4'',5''-트리올 [RPC-IV]” as the compound, how does the cell viability [3] read?
A: The cell viability was 86.9%.

Q: What about the “NO production (540 nm)” value ([4]; RP-HPLC fractions, absorbance at 540 nm) of the same compound?
A: The value was 1.426.

Q: What about the NO activity ([4]; chromatographic fractions, in words) of the same compound?
A: Its NO activity is “최대로 방출”.

Q: What about the phosphodiesterase inhibition ([5]; 0, 2, 10, 20 μg, in words) of the same compound?
A: The phosphodiesterase inhibition was “용량의존적 저해”.

Q: What about the IC50 ([5]; PDE [3H] cAMP SPA) of the same compound?
A: Its IC50 is 0.88 µg/mL.
